The record followed here is PubChem BioAssay (NCI).

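Where inhibition never reached the appropriate level, the endpoint shown equals the highest concentration tested. Otherwise, values were interpolated linearly from a five-concentration, 48-hour dose response in 96-well plates. TGI is the concentration that stops growth completely.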 Where only a bound is given, the exact number is not on record here.

Test systems include ACHN renal; CAKI-1 renal; DU-145 prostate; EKVX NSCLC; HL-60(TB) leukemia; HT29 colon; LOX IMVI melanoma; M14 melanoma; MDA-MB-435; MDA-N; NCI-H522 lung; SK-MEL-5 melanoma; SNB-19 CNS; UACC-257 melanoma; OVCAR-3 ovarian.
Test in all cases: NCI anticancer screen, dose series, 48 h

With `CCC(=O)c1ccc2[nH]c3c(C)c4c(=O)cc(C)[nH]c4c(C)c3c2c1`, the TGI with ACHN renal, in the test on CAKI-1 renal, in the test with DU-145 prostate, in the test with EKVX NSCLC, in the test with HL-60(TB) leukemia and in the test on HT29 colon was > 100 µM each time. Moreover, the TGI with LOX IMVI melanoma, in the test with M14 melanoma, with MDA-MB-435, in the test with MDA-N, in the test with NCI-H522 lung and with SK-MEL-5 melanoma was > 100 µM in each case. Besides, the TGI with SNB-19 CNS and with UACC-257 melanoma was > 100 µM in each case.

On to `CC1CC[C@@]2(OC1)OC1CC3C4CCC5C[C@@H](OC6OC(CO)C(OC7OC(CO)C(O)C(OC8OC(CO)C(O)C(OC9OC(CO)C(O)C(O)C9O)C8O)C7OC7OC(CO)C(O)C(O)C7O)C(O)C6O)[C@H](O)C[C@]5(C)C4CC[C@]3(C)C1[C@@H]2C` (some centres undefined), for which the TGI with ACHN renal, in the test with CAKI-1 renal, with DU-145 prostate, with EKVX NSCLC, in the test with HL-60(TB) leukemia and with HT29 colon was > 80.5 µM in each case. Further, the TGI in the test on LOX IMVI melanoma, in the test on M14 melanoma, in the test on MDA-MB-435, with MDA-N, in the test on OVCAR-3 ovarian and in the test with SK-MEL-5 melanoma was > 80.5 µM throughout. Moreover, the TGI with SNB-19 CNS and in the test with UACC-257 melanoma was > 80.5 µM in each case.

As to `CC(NC(=O)c1ccccc1)NC(=O)C(C)C(=O)Nc1ccccc1` (centres undefined), the TGI in the test on ACHN renal, in the test with CAKI-1 renal, in the test on DU-145 prostate, with EKVX NSCLC, in the test with HL-60(TB) leukemia and in the test with HT29 colon was > 100 µM each time. Also, the TGI in the test with M14 melanoma is > 100 µM; in the test on MDA-MB-435 it was > 100 µM; in the test on MDA-N, > 100 µM; with NCI-H522 lung it was > 100 µM; in the test with SK-MEL-5 melanoma, > 100 µM; in the test on SNB-19 CNS it was 71.7 µM. Also, the TGI in the test with UACC-257 melanoma was > 100 µM.

On to `Clc1cc(Cl)cc(C2ON=C(c3ccccc3)N2C23CC4CC(CC(C4)C2)C3)c1` (centres undefined), for which the TGI with ACHN renal, in the test on CAKI-1 renal, in the test with DU-145 prostate, in the test on EKVX NSCLC, in the test with HT29 colon and with LOX IMVI melanoma was > 10 µM each time. Further, the TGI in the test on M14 melanoma, in the test on MDA-MB-435, with MDA-N, with NCI-H522 lung, in the test on OVCAR-3 ovarian and in the test on SK-MEL-5 melanoma was > 10 µM in each case. Also, the TGI in the test on SNB-19 CNS and in the test on UACC-257 melanoma was > 10 µM each time.

Regarding `CN(C)S(=O)(=O)/N=C/c1cccc(/C=N/S(=O)(=O)N(C)C)c1`, the TGI in the test with ACHN renal, in the test on CAKI-1 renal, in the test with DU-145 prostate, with EKVX NSCLC, in the test with HL-60(TB) leukemia and in the test on LOX IMVI melanoma was > 100 µM each time. In addition, the TGI in the test on M14 melanoma, with MDA-MB-435, in the test with MDA-N, with OVCAR-3 ovarian, with SK-MEL-5 melanoma and with SNB-19 CNS was > 100 µM each time. The TGI in the test on UACC-257 melanoma is > 100 µM.

In the case of `CCN(CC)CCNC(=O)c1cc2cc(NC(=O)c3cc4cc(NC(=O)c5cc6cc(N)ccc6[nH]5)ccc4[nH]3)ccc2[nH]1`, the TGI in the test with ACHN renal, in the test on CAKI-1 renal, in the test on DU-145 prostate, with EKVX NSCLC, with HT29 colon and with LOX IMVI melanoma was > 100 µM in each case. The TGI with M14 melanoma, in the test with MDA-MB-435, with MDA-N, with NCI-H522 lung, in the test on OVCAR-3 ovarian and in the test on SK-MEL-5 melanoma was > 100 µM each time. Also, the TGI with SNB-19 CNS and in the test with UACC-257 melanoma was > 100 µM throughout.

As for `CCC[C@H](NS(=O)c1ccc(C)cc1)C(C(=O)OCC)=C(c1ccccc1)c1ccccc1` (some centres undefined), the TGI with ACHN renal is 60.8 µM; in the test with CAKI-1 renal, 35.6 µM; in the test on DU-145 prostate, 36.7 µM; in the test on EKVX NSCLC it was 38.6 µM; with HL-60(TB) leukemia, > 100 µM; in the test on HT29 colon, 30.4 µM. Besides, the TGI with LOX IMVI melanoma worked out at 33.6 µM; in the test with M14 melanoma, 51.2 µM; in the test with MDA-MB-435, 35 µM; in the test with MDA-N, 43.2 µM; with NCI-H522 lung, 55.1 µM; in the test on SK-MEL-5 melanoma, 44.4 µM. In addition, the TGI in the test on SNB-19 CNS is > 100 µM; in the test with UACC-257 melanoma, 33.5 µM.

With `Cc1nc2c(=O)n(-c3ccccc3)c3ccccc3c2o1`, the TGI in the test with ACHN renal, in the test on CAKI-1 renal, in the test on DU-145 prostate, in the test with EKVX NSCLC, in the test with HL-60(TB) leukemia and in the test with HT29 colon was > 100 µM throughout. Besides, the TGI in the test on LOX IMVI melanoma, in the test on M14 melanoma, in the test with MDA-MB-435, in the test with MDA-N, in the test with OVCAR-3 ovarian and in the test on SK-MEL-5 melanoma was > 100 µM each time. Further, the TGI with SNB-19 CNS and in the test on UACC-257 melanoma was > 100 µM throughout.

Turning to `CN(C)CCN=C1Nc2ccccc2C(=S)N2CSCC12` (centres undefined), the TGI with ACHN renal, in the test with CAKI-1 renal, with DU-145 prostate, with EKVX NSCLC, in the test on HT29 colon and in the test on LOX IMVI melanoma was > 100 µM in each case. Also, the TGI in the test on M14 melanoma, in the test on MDA-MB-435, in the test with MDA-N, with NCI-H522 lung, in the test on OVCAR-3 ovarian and in the test on SK-MEL-5 melanoma was > 100 µM each time. Moreover, the TGI in the test with SNB-19 CNS and with UACC-257 melanoma was > 100 µM in each case.
